Results published in patent publication US5859042A, “Five membered heterocyclic compounds” (Ono Pharmaceutical Co., Ltd., priority 1997, dated 1999).

Biological target: T1, 5α-reductase (Homo sapiens, UniProt P31213)
T1 construct: Frozen human prostates were thawed on ice and minced with scissors into small pieces; from tissue; host or cells: human prostate (frozen), washed 140,000×g membrane pellet
T1 sequence (P31213 1-254): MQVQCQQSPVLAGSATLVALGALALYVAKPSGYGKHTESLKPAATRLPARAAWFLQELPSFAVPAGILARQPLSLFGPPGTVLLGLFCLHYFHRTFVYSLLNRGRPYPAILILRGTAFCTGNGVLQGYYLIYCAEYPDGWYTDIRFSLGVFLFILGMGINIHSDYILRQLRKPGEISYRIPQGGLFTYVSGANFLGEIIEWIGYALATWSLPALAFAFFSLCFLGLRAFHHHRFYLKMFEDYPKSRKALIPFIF
Assay: inhibitory activity on 5α-reductase from human prostates (conversion of 14C-testosterone to DHT)
Type: biochemical
Details: human prostatic 5α-reductase, pH 5.0, 1 μM 14C-testosterone, 1 mM NADPH, 30 min at 37° C.
Procedure: (1) Preparation of 5α-reductase from human prostates
Frozen human prostates were thawed on ice and minced with scissors into small pieces (~1 mm^3). The minced tissue was homogenized in 3 tissue volumes of ice cold medium A (20 mM potassium phosphate, pH 6.5, containing 0.32M sucrose, 1 mM dithiothreitol, 50 μM NADPH, 1 mM EDTA), first with a Brinkmann Polytron and then with a Dounce homogenizer. The homogenate was filtered through gauze and the filtrate was centrifuged at 140,000×g at 4° C. for 60 min. The resulting pellet was washed with 3 tissue volumes of medium A. The washed pellet was suspended (5-10 mg protein/ml) in 20 mM potassium phosphate, pH 6.5, containing 20% glycerol, 50 μM NADPH and 1 mM dithiothreitol. An appropriate aliquot of this suspension was used as the source of 5α-reductase.
5α-reductase activity was determined by following the conversion of testosterone to 5α-dihydrotestosterone (DHT). In brief, buffer (100 mM Tris-citrate, pH5.0), 1 mM NADPH and human prostatic 5α-reductase(0.4-1 mg protein) were placed in test tubes. After addition of test compounds (dissolved in 5 μl in DMSO or EtOH) or solvents to the tubes, the solutions were preincubated at room temperature for 10 min. The reactions were initiated by addition of 1 μM ^14 C-testosterone to a final volume of 0.5 ml. Following 30 min incubation at 37° C., the reactions were stopped by addition of 5 ml dichloromethane. After centrifugation at 1000 rpm for 5 min, the organic phase (bottom) was collected and the volume reduced to ~100 μl in a 42° C. water bath. The solutions were applied to silica plates and the plates were developed in chloroform/ethyl acetate (3:1) at room temperature. The radioactivity profiles were determined by a BIOSCAN imaging scanner. The silica in sections identified by BIOSCAN and counted in a scintillation counter. Enzyme activity was calculated from the percent of recovered radio label converted to the product DHT.

| IC50 (Table 1) [nM] | IC50 (Table 2) [nM] | Compound |
| --- | --- | --- |
| 24 |  | CCc1ccc(-c2ccc(C(=O)c3ccc(CC(=O)O)n3C)cc2)cc1 [Example 2] |
| 20 |  | Cn1c(CC(=O)O)ccc1C(=O)c1ccc(C2CCCCC2)cc1 [Example 3(1)] |
| 19 |  | Cn1c(CC(=O)O)ccc1C(=O)c1ccc(-c2ccccc2)cc1 [Example 3(2)] |
| 210 |  | Cn1c(CC(=O)O)ccc1C(=O)c1ccc(C(=O)c2ccccc2)cc1 [Example 3(5)] |
| 24 |  | Cn1c(CC(=O)O)ccc1C(=O)c1ccc(OCc2ccccc2)cc1 [Example 3(8)] |
| 170 |  | Cc1cc(OCc2ccccc2)ccc1C(=O)c1ccc(CC(=O)O)n1C [Example 3(16)] |
| 450 |  | O=C(O)Cc1ccc(C(=O)c2ccc(-c3ccccc3)cc2)s1 [Example 3(18)] |
| 130 |  | Cn1c(CC(=O)O)ccc1C(=O)c1ccc2c(c1)C(=O)c1ccccc1-2 [Example 3(20)] |
| 840 |  | Cn1c(CC(=O)O)ccc1C(=O)CCCCc1ccccc1 [Example 3(22)] |
| 98 |  | Cn1c(CC(=O)O)ccc1C(=O)c1ccc(CSc2ccccc2)cc1 [Example 3(41)] |
| 56 |  | Cn1c(CC(=O)O)ccc1C(=O)c1ccc(/C=C/c2ccccc2)cc1 [Example 3(47)] |
| 160 |  | Cn1c(CC(=O)O)ccc1C(=O)c1ccc(-n2cccc2)cc1 [Example 3(50)] |
| 23 |  | Cn1c(CC(=O)O)ccc1C(=O)c1ccc(-c2cccs2)cc1 [Example 3(54)] |
| 24 |  | Cn1c(CC(=O)O)ccc1C(=O)c1ccc(-c2ccc(Br)s2)cc1 [Example 3(55)] |
| 41 |  | Cn1c(CC(=O)O)ccc1C(=O)c1ccc(-c2ccc(F)cc2)cc1 [Example 3(62)] |
| 170 |  | Cn1c(C(=O)O)ccc1C(=O)c1ccc(-c2ccccc2)cc1 [Example 3(70)] |
| 250 |  | Cn1c(CC(=O)O)ccc1C(=O)C1CCC(c2ccccc2)CC1 (stereo not drawn) [Example 3(77)] |
| 630 |  | Cn1c(CC(=O)O)ccc1C(=O)c1ccc(-c2cc(Cl)cc(Cl)c2)cc1 [Example 3(82)] |
| 92 |  | Cc1cc(C(=O)c2ccc(CC(=O)O)n2C)ccc1-c1ccccc1 [Example 3(83)] |
|  | 170 | CCCCCCOc1ccc(C(=O)c2ccc(CC(=O)O)n2C)cc1 [hexyloxy] |
|  | 440 | Cn1c(CC(=O)O)ccc1C(=O)c1ccc(I)cc1 [iodo] |
|  | 74 | CC(C)Cc1ccc(C(=O)c2ccc(CC(=O)O)n2C)cc1 [isobutyl] |
|  | 400 | Cn1c(CC(=O)O)ccc1C(=O)c1ccc(C(C)(C)C)cc1 [t-butyl] |

| Compound | IC50 (Table 1) [nM] | IC50 (Table 2) [nM] |
| --- | --- | --- |
| Cc1ccc(C(=O)c2ccc(CC(=O)O)n2C)cc1 [methyl] |  | 8000 |
